Reference: US6207669A, “Bicyclic heteroaromatic compounds as protein tyrosine kinase inhibitors” (Glaxo Wellcome Inc., priority 1996, dated 2001)
pIC50: −log10 of the molar value. Structures can show the parent of a compound that is named as a salt. Where two headings read alike, the source gives them in different places.

Key:
[1] = target: T1, EGFr isolated from solubilised A431 cell membranes (Homo sapiens, UniProt P00533); experiment: Substrate phosphorylation assay, EGFr; type: biochemical; conditions: 30 minutes, room temperature, ATP and peptide at Km
T1 construct: EGFr isolated from solubilised A431 cell membranes; endogenous in cells; host or cells: A431 cells (solubilised membranes)
T1 sequence (P00533 25-1210): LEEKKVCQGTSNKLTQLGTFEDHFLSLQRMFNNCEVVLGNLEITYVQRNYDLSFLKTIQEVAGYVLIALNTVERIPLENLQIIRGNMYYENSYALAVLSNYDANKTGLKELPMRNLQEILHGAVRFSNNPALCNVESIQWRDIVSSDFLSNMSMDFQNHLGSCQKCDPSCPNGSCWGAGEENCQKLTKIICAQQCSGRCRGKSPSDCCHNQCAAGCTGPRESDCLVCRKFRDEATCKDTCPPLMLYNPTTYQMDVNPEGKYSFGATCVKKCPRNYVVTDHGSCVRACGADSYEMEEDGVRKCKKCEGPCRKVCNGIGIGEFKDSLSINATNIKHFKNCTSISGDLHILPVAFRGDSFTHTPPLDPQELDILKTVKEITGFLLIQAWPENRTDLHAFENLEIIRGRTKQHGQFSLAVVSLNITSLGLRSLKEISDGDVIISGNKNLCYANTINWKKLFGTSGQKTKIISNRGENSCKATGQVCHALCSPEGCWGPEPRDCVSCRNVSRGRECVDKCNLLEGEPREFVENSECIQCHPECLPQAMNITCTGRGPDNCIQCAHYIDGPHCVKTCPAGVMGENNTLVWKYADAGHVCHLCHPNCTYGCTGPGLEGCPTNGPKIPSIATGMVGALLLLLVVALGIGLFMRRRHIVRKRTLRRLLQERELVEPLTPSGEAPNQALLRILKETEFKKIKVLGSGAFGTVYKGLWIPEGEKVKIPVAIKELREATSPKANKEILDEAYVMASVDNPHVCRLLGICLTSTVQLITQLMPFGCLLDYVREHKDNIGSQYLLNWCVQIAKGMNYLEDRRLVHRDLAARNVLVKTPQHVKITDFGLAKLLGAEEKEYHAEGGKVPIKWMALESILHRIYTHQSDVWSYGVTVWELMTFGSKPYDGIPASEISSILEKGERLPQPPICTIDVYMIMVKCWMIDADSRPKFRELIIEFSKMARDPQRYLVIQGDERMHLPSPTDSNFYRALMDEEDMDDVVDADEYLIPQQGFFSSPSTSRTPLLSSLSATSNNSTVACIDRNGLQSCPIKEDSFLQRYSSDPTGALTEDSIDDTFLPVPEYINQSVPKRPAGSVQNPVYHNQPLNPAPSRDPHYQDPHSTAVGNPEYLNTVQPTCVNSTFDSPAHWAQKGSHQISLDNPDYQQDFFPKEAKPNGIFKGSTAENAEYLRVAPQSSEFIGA
Method: (§1) The substrate phosphorylation assays use baculovirus expressed, recombinant constructs of the intracellular domains of c-erbB-2 and c-erbB4 that are constitutively active and EGFr isolated from solubilised A431 cell membranes. The method measures the ability of the isolated enzymes to catalyse the transfer of the γ-phosphate from ATP onto tyrosine residues in a biotinylated synthetic peptide (Biotin-GluGluGluGluTyrPheGluLeuVal). The enzyme is incubated for 30 minutes, at room temperature, with 10 mM […], ATP and peptide at Km concentrations, and test compound (diluted from a 5 mM stock in DMSO, final DMSO concentration is 2%) in 40 mM HEPES buffer, pH 7.4. The reaction is stopped by the addition of EDTA (final concentration 0.15 mM) and a sample is transferred to a streptavidin-coated 96-well plate. The plate is washed and the level of phosphotyrosine on the peptide is determined using a Europium-labelled antiphosphotyrosine antibody and quantified with a time-resolved fluorescence technique. The results are shown in Table 1 as the IC50 values in nM.

[2] = target: T2, c-erbB-2 (baculovirus expressed, recombinant intracellular domain) (Homo sapiens, UniProt P04626); experiment: Substrate phosphorylation assay, c-erbB-2; type: biochemical; conditions: 30 minutes, room temperature, ATP and peptide at Km
T2 construct: recombinant constructs of the intracellular domains of c-erbB-2 and c-erbB4 that are constitutively active; made in house
T2 sequence (P04626 676-1255 limits assumed): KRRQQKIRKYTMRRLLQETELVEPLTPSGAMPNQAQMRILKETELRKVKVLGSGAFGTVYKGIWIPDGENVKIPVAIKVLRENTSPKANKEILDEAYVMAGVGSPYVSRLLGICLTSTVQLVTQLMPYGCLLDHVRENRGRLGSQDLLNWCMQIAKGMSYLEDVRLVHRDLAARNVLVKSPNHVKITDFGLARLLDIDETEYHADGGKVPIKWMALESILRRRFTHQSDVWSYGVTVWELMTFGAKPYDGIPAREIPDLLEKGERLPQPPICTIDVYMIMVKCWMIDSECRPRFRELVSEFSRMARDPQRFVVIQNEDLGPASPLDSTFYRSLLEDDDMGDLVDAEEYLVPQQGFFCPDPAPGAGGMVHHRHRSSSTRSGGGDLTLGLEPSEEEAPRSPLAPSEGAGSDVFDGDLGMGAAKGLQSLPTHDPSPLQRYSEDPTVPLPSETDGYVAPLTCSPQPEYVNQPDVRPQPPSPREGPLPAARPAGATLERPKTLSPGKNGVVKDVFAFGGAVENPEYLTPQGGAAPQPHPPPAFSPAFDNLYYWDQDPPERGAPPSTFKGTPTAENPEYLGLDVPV
Method: The substrate phosphorylation assays use baculovirus expressed, recombinant constructs of the intracellular domains of c-erbB-2 and c-erbB4 that are constitutively active and EGFr isolated from solubilised A431 cell membranes. […] The reaction is stopped by the addition of EDTA (final concentration 0.15 mM) and a sample is transferred to a streptavidin-coated 96-well plate. The plate is washed and the level of phosphotyrosine on the peptide is determined using a Europium-labelled antiphosphotyrosine antibody and quantified with a time-resolved fluorescence technique. The results are shown in Table 1 as the IC50 values in nM.

[3] = target: T3, c-erbB4 (baculovirus expressed, recombinant intracellular domain) (Homo sapiens, UniProt Q15303); experiment: Substrate phosphorylation assay, c-erbB4; type: biochemical; conditions: 30 minutes, room temperature, ATP and peptide at Km; read-out: Substrate Phosphorylation erbB-4 IC50
T3 construct: recombinant constructs of the intracellular domains of c-erbB-2 and c-erbB4 that are constitutively active; made in house
T3 sequence (Q15303 676-1308 limits assumed): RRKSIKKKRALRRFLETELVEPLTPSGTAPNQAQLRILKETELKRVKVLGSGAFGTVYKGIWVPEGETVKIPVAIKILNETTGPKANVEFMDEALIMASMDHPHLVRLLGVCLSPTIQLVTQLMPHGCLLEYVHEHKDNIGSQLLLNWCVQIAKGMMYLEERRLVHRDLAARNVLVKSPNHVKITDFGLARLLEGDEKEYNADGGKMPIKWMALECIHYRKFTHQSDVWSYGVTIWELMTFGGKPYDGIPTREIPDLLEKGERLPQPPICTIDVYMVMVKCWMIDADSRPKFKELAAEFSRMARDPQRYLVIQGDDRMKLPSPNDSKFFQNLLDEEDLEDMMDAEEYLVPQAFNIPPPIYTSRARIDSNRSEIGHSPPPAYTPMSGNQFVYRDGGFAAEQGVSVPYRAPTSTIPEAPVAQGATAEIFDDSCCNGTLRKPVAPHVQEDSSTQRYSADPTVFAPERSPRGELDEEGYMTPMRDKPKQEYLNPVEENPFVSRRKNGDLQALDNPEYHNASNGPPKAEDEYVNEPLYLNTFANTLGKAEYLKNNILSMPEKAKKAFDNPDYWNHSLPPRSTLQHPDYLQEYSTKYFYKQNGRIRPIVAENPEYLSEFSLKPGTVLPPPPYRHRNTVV
Method: as §1

[4] = system: HB4a cell line transformed by over-expression of c-erbB-2; experiment: Cell proliferation assay, HB4a erbB-2; type: cell-based; conditions: Homo sapiens, 96 h, 4 days, methylene blue staining
Method: (§2) The cell proliferation assay uses an immortalised human breast epithelial cell line (HB4a) which has been transformed by over-expression of c-erbB-2. Growth of these cells in low serum is dependent upon the c-erbB-2 tyrosine kinase activity. […] Cells are plated at 3000/well in 96-well plates in […] medium and allowed to attach overnight. test compound is added in 0.1 ml medium, with a final concentration of 0.5% DMSO, and the plates incubated for 4 days at 37° C. The cells are then examined microscopically for evidence of morphological detransformation and cell mass is estimated by staining with methylene blue and measuring the absorbance at 620 nm. […] Activity against a range of naturally occurring EGFr or c-erbB-2 over-expressing human tumour cell lines (BT474-breast, HN5-head and neck, N87 gastric and Calu3-lung) is assessed with selected compounds by the same methodology.

[5] = system: HB4a cell line transfected with ras; experiment: Cell proliferation assay, HB4a ras; type: cell-based; conditions: Homo sapiens, 96 h, 4 days, methylene blue staining, general toxicity comparison
[6] = system: BT474-breast tumour cell line; experiment: Cell proliferation assay, BT474; type: cell-based; conditions: Homo sapiens, BT-474, 96 h; 4 days, methylene blue staining
Method: as §2

[7] = system: N87 gastric tumour cell line; experiment: Cell proliferation assay, N87; type: cell-based; conditions: Homo sapiens, 96 h; 4 days, methylene blue staining
Method: as §2

[8] = system: Calu3-lung tumour cell line; experiment: Cell proliferation assay, Calu3; type: cell-based; conditions: Homo sapiens, Calu-3, 96 h; 4 days, methylene blue staining
Method: as §2

[9] = system: HN5-head and neck tumour cell line; experiment: Cell proliferation assay, HN5; type: cell-based; conditions: Homo sapiens, 96 h, read-out: Cell Proliferation HN5 IC50
Method: as §2

[10] = 4 days, methylene blue staining

SMILES	pIC50 [1]	pIC50 [2]	pIC50 [3]	pIC50 [4]	pIC50 [5]	pIC50 [6]	pIC50 [7]	pIC50 [8]	pIC50 [9]	pIC50 [9, 10]
c1ccc(COc2ccc(Nc3ncnc4cnc(-c5ccc(CN6CCCCC6)o5)cc34)cc2)cc1 [Example 1, (4-Benzyloxy-phenyl)-(6-(5-piperidin-1-ylmethyl)-furan-2-yl)-pyrido3,4-d]pyrimidin-4-yl)-amine hydrochloride]	6.77	7.15	5.85	–	–	–	–	–	–	–
CN1CCN(Cc2ccc(-c3cc4c(Nc5ccc(OCc6ccccc6)cc5)ncnc4cn3)o2)CC1 [Example 2, (4-Benzyloxy-phenyl)-(6-(5-(4-methyl-piperazin-1-ylmethy)-furan-2-yl)pyrido[3,4-d]pyrimidin-4-yl)-amine]	6.77	7.22	6.12	6.37	5.68	–	–	–	–	–
CS(=O)(=O)CCNCc1ccc(-c2cc3c(Nc4ccc(OCc5ccccc5)cc4)ncnc3cn2)o1 [Example 3, 4-Benzyloxy-phenyl)-(6-(5-((2-methanesulphonyl-ethylamino)methyl)-furan-2-yl-pyrido[3,4-d]pyrimidin-4-yl)-amine hydrochloride]	6.85	8.00	6.72	6.30	4.51	–	–	–	–	–
COC(=O)CNCc1ccc(-c2cc3c(Nc4ccc(OCc5ccccc5)cc4)ncnc3cn2)o1 [Example 4, ((5-4-(4-Benzloxy-phenylamino)-pyrido[3,4-d]pyrimidin-6-yl)-furan-2-ylmethyl)-amino)-acetic acid methyl ester hydrochloride]	6.89	7.89	6.28	4.54	4.80	–	–	–	–	–
c1ccc(COc2ccc(Nc3ncnc4cnc(-c5ccc(CNc6cccnc6)o5)cc34)cc2)cc1 [Example 5, (4-Benzyloxy-phenyl)-(6-(5-(pyridin-3-ylaminomethyl)-furan-2-yl)-pyrido[3,4-d]pyrimidin-4-yl)-amine]	6.59	6.96	5.80	5.25	5.09	–	–	–	–	–
CN(C)Cc1ccc(-c2cc3c(Nc4ccc(OCc5ccccc5)cc4)ncnc3cn2)o1 [Example 6, (4-Benzyloxy-phenyl)6-(5-(dimethyyaminomethyl)-furan-2-yl)pyrido[3,4-d]pyrimidin4-yl)-amine hydrochloride]	6.42	7.01	5.62	5.82	5.66	–	–	–	–	–
NC(=O)[C@@H]1CCCN1Cc1ccc(-c2cc3c(Nc4ccc(OCc5ccccc5)cc4)ncnc3cn2)o1 [Example 7, (2S)-1-(5-(4-(4-Benzyloxy-phenylamino)-pyrido[3,4-d]pyrimidine-6-yl)-furan-2-ylmethyl)-pyrrolidine-2-carboxylic acid amide hydrochloride]	7.10	7.36	7.08	6.39	4.82	–	–	–	–	–
CN(CC(N)=O)Cc1ccc(-c2cc3c(Nc4ccc(OCc5ccccc5)cc4)ncnc3cn2)o1 [Example 8, 2-((5-(4-(4-Benzyloxy-phenylamino)-pyrido[3,4-d]pyrimidin-6-yl)-furan-2-ylmethyl)-methylamino)-acetamide]	6.14	7.96	6.80	7.00	4.39	6.42	7.22	6.47	6.46	–
CC(=O)NCCNCc1ccc(-c2cc3c(Nc4ccc(OCc5ccccc5)cc4)ncnc3cn2)o1 [Example 9]	7.02	8.15	6.00	6.14	5.41	–	–	–	–	–
C[S+]([O-])CCNCc1ccc(-c2cc3c(Nc4ccc(OCc5ccccc5)cc4)ncnc3cn2)o1 (stereo not drawn) [Example 10, (4-Benzyloxy-phenyl)-(6-(5-((2-methanesulphinyl-ethylamino)-methyl)-furan-2-yl)-pyrido[3,4-d]pyrimidin-4-yl)-amine]	6.85	7.66	–	6.60	5.06	–	–	–	–	–
O=C(O)CNCc1ccc(-c2cc3c(Nc4ccc(OCc5ccccc5)cc4)ncnc3cn2)o1 [Example 11, ((5-(4-(4-Benzyloxy-phenylamino)-pyrido[3,4-d]pyrimidine-6yl)-furan-2-ylmethyl)-amino)-acetic acid hydrochloride]	7.06	7.72	6.35	4.30	5.23	–	–	–	–	–
OCc1ccc(-c2cc3c(Nc4ccc(OCc5ccccc5)cc4)ncnc3cn2)o1 [Example 12, (5-4-(4-(4-Benzyloxy-phenylamino)-pyrido[3,4-d]pyrimidin-6-yl)-furan-2-yl)-methanol hydrochloride]	7.51	8.40	6.31	6.36	5.12	–	–	–	6.34	–
NC(=O)[C@H]1CCCN1Cc1ccc(-c2cc3c(Nc4ccc(OCc5ccccc5)cc4)ncnc3cn2)o1 [Example 13, (2R)-1-{5-[4-(4-Benzyloxy-phenylamino)-pyrido[3,4-d]pyrimidin-6-yl]-furan-2-ylmethyl}pyrrolidine-2-carboxalic acid amide hydrochloride]	–	7.85	6.32	6.77	< 4.30	–	–	–	6.46	–
CS(=O)(=O)CCCNCc1ccc(-c2cc3c(Nc4ccc(OCc5ccccc5)cc4)ncnc3cn2)o1 [Example 14]	–	6.38	5.41	–	–	–	–	–	–	–
CN(CCS(C)(=O)=O)Cc1ccc(-c2cc3c(Nc4ccc(OCc5ccccc5)cc4)ncnc3cn2)o1 [Example 15]	–	7.52	5.82	6.52	5.07	–	–	–	–	–
CN(C)C(=O)[C@@H]1CCCN1Cc1ccc(-c2cc3c(Nc4ccc(OCc5ccccc5)cc4)ncnc3cn2)o1 [Example 16, (2S)-1-{-5-[4-(4-Benzyloxy-phenylamino)-pyrido[3,4-d]pyrimidin-6-yl]-furan-2-ylmethyl}-pyrrolidine-2-carboxylic acid dimethylamide]	–	6.55	5.55	5.68	5.10	–	6.17	–	–	5.48
CS(=O)(=O)NCCNCc1ccc(-c2cc3c(Nc4ccc(OCc5ccccc5)cc4)ncnc3cn2)o1 [Example 17, N-(2-((5-(4-(4-Benzyloxy-phenylamino)-pyrido[3,4-d]pyrimidin-6-yl)-furan-2-ylmethyl)-amino)-ethyl)-methanesulphonamide hydrochloride]	–	7.54	6.12	6.60	5.46	7.00	6.82	5.43	–	6.14
